Test results taken from patent publication US10676792B2, “Prognostic and diagnostic methods for colorectal cancer” (The Regents of the University of California, priority 2015, dated 2020).

Tested on: P-Y1068-EGFR
Assay: Western blot analysis of P-Y1068-EGFR in EGF-stimulated HCT15 cells treated with DGK inhibitor
Format: cell-based, human
Details: versus DMSO control, pre-incubated 30 min
Experimental: Cells were plated in 6 or 10 cm dishes and starved for 2 h at 37 C in PBS. After resting, cells were EGF-stimulated for different time 3, 10 or 30 min. Cells were lysed with ice-cold 2% NP40 supplemented with protease and phosphatase inhibitors [10 mM sodium fluoride, 2 mM sodium orthovanadate, 0.5 mM EDTA, 2 mM phenyl-methylsulfonyl fluoride, 1 mM sodium molybdate, aprotonin (10 mg/ml), leupeptin (10 mg/ml), pepstatin (1 mg/ml)]. After 30 min on ice, lysates were centrifuged and supernatant were mix with 2× sample buffer. Protein lysates were separated on acrylamide gel 10%, transferred on PVDF membrane and incubated with primary antibodies of interest. Inhibitors such as Rottlerin (20 μM) and DGK were pre-incubated for 30 min before stimulation. Western blots were visualized with enhanced chemo-luminescence and imaging on a Fuji LAS 4000 image station (GE Healthcare). The protein bands in Western blots were quantified with Multi Gauge software, and densitometry (pixel intensity) was determined within the linear range of the exposure. Amounts of the proteins of interest were typically presented as a ratio of the indicated loading control. Values were then normalized to an indicated sample and noted as a fold difference. Results represent at least three independent experiments.

In the case of `O=c1c2ccccc2[nH]c(=S)n1CCN1CCC(=C(c2ccc(F)cc2)c2ccc(F)cc2)CC1` [R59949], the P-Y1068-EGFR levels is reported as “decreased levels”.
